The record followed here is US9309236B2, “PI-kinase inhibitors with broad spectrum anti-infective activity” (The Board of Trustees of the Leland Stanford Junior …, priority 2011, dated 2016).

pEC50: −log10 of the molar value. Bounds are passed on as bounds.

Tested on in the first data set: not listed separately
Kind of data set: in vitro. It is filed as in vitro ADME. To be noted: human, microsomes. The method, then:
To determine the major metabolites of the compound, the compound is incubated with microsomes and analyzed using methods similar to those described by Guo et al., “In silico pharmacogenetics of warfarin metabolism.” Nat. Biotechnol. 2006; 24(5):531-6.
(§1) The compounds of Table 1 were prepared according to the methods described above.
On to `COc1ccc(-c2sc(NC(=O)C3CCOCC3)nc2C)cc1S(=O)(=O)Nc1ccc(O)cc1` [AB3737], for which the half-life – broadly, the time in which the quantity being followed falls by half – turned out to be 46.5 min.
As for `COc1ccc(NS(=O)(=O)c2cc(-c3sc(NC4CCCCC4)nc3C)ccc2OC)c(C)c1.O=C(O)C(F)(F)F` [AB4021], the half-life stood at 3.9 min.
`COc1ccc(-c2sc(NC(=O)NC(C)(C)C)nc2C)cc1S(=O)(=O)Nc1ccc(O)cc1` [AB3835] displayed a half-life of 28.7 min.
The same measure, in the same setting: to `COc1ccc(-c2sc(NC(C)C)nc2C)cc1S(=O)(=O)Nc1ccc(O)cc1` [AB3913] belongs 24.2 min.
Same read-out and setting: with `COc1ccc(-c2sc(NC(=O)C3CCCC3)nc2C)cc1S(=O)(=O)Nc1cnc(Cl)c(C)c1.O=C(O)C(F)(F)F` [AB3862] the figure was 27.3 min.
Compound `COc1ccc(-c2sc(NC(=O)NCC(C)C)nc2C)cc1S(=O)(=O)Nc1ccc(O)cc1` [AB3832] registered a half-life of 11.1 min.
Same read-out and setting: with `COc1ccc(-c2sc(NC(=O)C3CCCC3)nc2C)cc1S(=O)(=O)Nc1cnc(F)cc1C` [AB3664] the figure was 28.8 min.

Tested on in another data set: not listed separately
Kind of data set: Cell toxicity (CC50), Table 3. It is filed as cell-based. Conditions: human, Huh7.5 cells. The method, then:
as §1
As to `COc1ccc(-c2sc(NC(=O)C3CCOCC3)nc2C)cc1S(=O)(=O)Nc1ccc(O)cc1` [AB3737], the 50% cytotoxic concentration (CC50) (as a rule, the concentration at which the toxic effect on the cells reaches its halfway point) was found to be 50 µM.
Turning to `COc1ccc(NS(=O)(=O)c2cc(-c3sc(NC4CCCCC4)nc3C)ccc2OC)c(C)c1.O=C(O)C(F)(F)F` [AB4021], the CC50 turned out to be 13 µM.
For the compound `COc1ccc(-c2sc(NC(=O)NC(C)(C)C)nc2C)cc1S(=O)(=O)Nc1ccc(O)cc1` [AB3835], it took 48 µM to reach half-maximal cytotoxicity (CC50).
Compound `COc1ccc(-c2sc(NC(C)C)nc2C)cc1S(=O)(=O)Nc1ccc(O)cc1` [AB3913] returned a CC50 of 59 µM.
Compound `COc1ccc(-c2sc(NC(=O)C3CCCC3)nc2C)cc1S(=O)(=O)Nc1cnc(Cl)c(C)c1.O=C(O)C(F)(F)F` [AB3862] came in with a CC50 of 22 µM.
The same measure, in the same setting: to `COc1ccc(-c2sc(NC(=O)NCC(C)C)nc2C)cc1S(=O)(=O)Nc1ccc(O)cc1` [AB3832] belongs 46 µM.
The same measure, in the same setting: to `COc1ccc(-c2sc(NC(=O)C3CCCC3)nc2C)cc1S(=O)(=O)Nc1cnc(F)cc1C` [AB3664] belongs 58 µM.

The subject of another data set is HCV genotype 2a. Briefly: microbe, parasite or virus in culture. It is filed as cell-based. Conditions: Hepatitis C virus, Huh7.5, HCV genotype 2a in Huh7.5 cells, luciferase reporter assay; read-out: 2a EC50. On the procedure:
Anti-HCV assays are performed as described by Cho et al. “Identification of a class of HCV inhibitors directed against the nonstructural protein NS4B.” Sci. Transl.
as §1
On to `COc1ccc(-c2sc(NC(=O)C3CCOCC3)nc2C)cc1S(=O)(=O)Nc1ccc(O)cc1` [AB3737], for which the pEC50 (in general, the EC50 on a negative log10 scale, so that one unit is a factor of ten) was < 6.00.
Still for that read-out and setting: to `COc1ccc(NS(=O)(=O)c2cc(-c3sc(NC4CCCCC4)nc3C)ccc2OC)c(C)c1.O=C(O)C(F)(F)F` [AB4021] belongs > 6.70; to `COc1ccc(-c2sc(NC(=O)NC(C)(C)C)nc2C)cc1S(=O)(=O)Nc1ccc(O)cc1` [AB3835], 6.00 to 6.70; to `COc1ccc(-c2sc(NC(C)C)nc2C)cc1S(=O)(=O)Nc1ccc(O)cc1` [AB3913], < 6.00.
For `COc1ccc(-c2sc(NC(=O)C3CCCC3)nc2C)cc1S(=O)(=O)Nc1cnc(Cl)c(C)c1.O=C(O)C(F)(F)F` [AB3862], the pEC50 was 6.00 to 6.70.
Still for that read-out and setting: to `COc1ccc(-c2sc(NC(=O)NCC(C)C)nc2C)cc1S(=O)(=O)Nc1ccc(O)cc1` [AB3832] belongs < 6.00.
Take `COc1ccc(-c2sc(NC(=O)C3CCCC3)nc2C)cc1S(=O)(=O)Nc1cnc(F)cc1C` [AB3664]: the pEC50 was 6.00 to 6.70.
